Assays:
[1] = Inhibiton of EGFR (unknown origin) expressed in human A431 cells assessed as reduction in EGFR induced cell viability after 96 hrs by CellTiter-Glo assay
[2] = Inhibiton of EGFR L858R/T790M mutant (unknown origin) expressed in human NCI-H1975 cells assessed as reduction in EGFR induced cell viability after 96 hrs by CellTiter-Glo assay

C=CC(=O)Nc1cccc(-c2c[nH]c3ncnc(Nc4ccc(OCc5ccccn5)c(Cl)c4)c23)c1
IC50 [1]: 1.68 µM | IC50 [2]: 0.739 µM

C=CC(=O)Nc1cccc(-c2c[nH]c3ncnc(Nc4ccc(CN5C(=O)c6ccccc6C5=O)cc4)c23)c1
IC50 [1]: 1.57 µM | IC50 [2]: 2.66 µM

C=CC(=O)Nc1cc(-c2c[nH]c3ncnc(Nc4ccc(OCc5ccccn5)c(Cl)c4)c23)ccc1OCCN(C)C
IC50 [1]: 0.862 µM | IC50 [2]: 0.807 µM

C=CC(=O)Nc1cc(-c2c[nH]c3ncnc(Nc4ccc5c(cnn5Cc5ccccc5)c4)c23)ccc1OCCO
IC50 [1]: 2.24 µM

Source: BindingDB's records for doi:10.1021/acs.jmedchem.0c00870 (Tu Dortmund University, 2020)
